One data set is described as follows: Wettability with water. The format is physicochemical.
The next data set has as its system KIT. In words: KIT phosphorylation in canine mast cell tumor biopsies before and after a single dose (immunoprecipitation/Western blot). In kind it is in vivo. As for the experimental part:
(§1) Study Design. This study was a proof of target modulation study in dogs with recurrent or metastatic grade MCTs. Patients received a single oral dose of Compound I phosphate at 3.25 mg/kg. Using a 6-mm punch biopsy instrument, samples were obtained from the tumor before Compound I phosphate administration and 8 hours (h) after treatment. When possible, multiple biopsies were taken. Each sample was flash frozen in liquid nitrogen and stored at −70° centigrade (C) before analysis. Blood samples for analysis of plasma levels of Compound I phosphate were obtained at the same time as tumor biopsies (see below).
Analysis of KIT and ERK Phosphorylation. Tumor biopsies were frozen in liquid nitrogen and later pulverized using a liquid nitrogen-cooled cryomortar and pestle, then stored at −70° C. until used. For the analysis of KIT, pulverized tumors were homogenized, lysed, and immunoprecipitated from 1 mg of starting tumor lysate, as described previously (Abrams, T. J., Lee, L. B., Murray, L. J., Pryer, N. K., Cherrington, J. M. SU11248 inhibits KIT and platelet-derived growth factor receptor beta in preclinical models of human small cell lung cancer. Mol. Cancer Ther. 2: 471-478, 2003; which is incorporated by reference in its entirety) using an agarose-conjugated antibody to KIT (SC-1493AC; Santa Cruz Biotechnology, Santa Cruz, Calif.). […] The amount of phosphorylated KIT in each sample was determined by Western blot using an antibody to phosphotyrosine 719 of murine KIT (3391; Cell Signaling Technology, Beverly, Mass.), which corresponds to tyrosine 721 of canine KIT and is an autophosphorylation site and, thus, a surrogate for KIT kinase activity. […] Target modulation was scored by eye by three observers blinded to the JM status and plasma concentration. Reduction of ≧50% in phospho-protein signal relative to total protein signal in the biopsy sample taken post-treatment compared with the pretreatment biopsy was scored as positive for target modulation, whereas a reduction of <50% was scored negative.
A general note: In western blotting, separated proteins are transferred to a membrane and probed.

Data set [1] is described as follows: Dynamic moisture sorption gravimetry (DMSG) of salts of Compound I. The format is physicochemical. The protocol: Dynamic Moisture Sorption Gravimetry (DMSG).
DMSG isotherm was collected on a temperature controlled atmospheric microbalance. Approximately 10 mg samples were placed in the sample pan of the balance. The humidity was sequentially varied from room relative humidity (RH) to 0% RH and was then increased to 90% RH followed by a decrease of RH to 0% again in 3% RH steps. The mass was then measured every two minutes. The RH was stepped to the next target value when change of the sample mass was less than 0.5 μg in 10 min. The Visual Basic program dmsgscn2.exe was used to control the data collection and export the information to an Excel spreadsheet.

Data set [2] is described as follows: Compound I phosphate plasma levels in dogs with mast cell tumors (LC/MS/MS). To be noted: for concentration at 8 h / Cmax at 8 h: dog, plasma, oral; for Cmax at 8 h: dogs. In kind it is in vivo, canine. The protocol: as §1
Compound I Phosphate Plasma Levels. Blood samples were drawn from the jugular vein and placed into a red-top serum collection vacuum glass tube. Specimens were kept at room temperature, allowed to clot, centrifuged at 1500 rpm at 4° C. for 10 minutes, transferred to cryovials, and plasma frozen at −70° C. pending analysis. Briefly, plasma samples (20 μl) or Compound I phosphate standards in canine plasma were mixed with methanol (200 μl) containing DL-propranolol hydrochloride (internal standard) in a 96-well polypropylene plate (Orochem Technology, Westmont, Ill.). The plate was mixed by vortex for 1 min, and the samples were centrifuged for 10 min at 4000 rpm. Ten microliters of the supernatant were injected onto the LC/MS/MS system, in which separation occurred on a BataBasic C-18 (5 μm, 100×4.6 mm) reverse-phase high-performance liquid chromatography column (Keystone Scientific, Foster City, Calif.). The amount of Compound I phosphate and the internal standard in each canine plasma sample were quantified based on standard curves generated using known amounts of compound ranging from 0.2 to 500 ng/ml.

Data set [3] in a line: Estimation of solubility in various solvents by step-wise solvent addition. The format is physicochemical. As for the experimental part:
Samples of 1-2 mg of Compound I phosphate (lot 35282-CS-51) were transferred to 10 mL glass vials (tared) and were weighed (accurate to 0.1 mg). Solvents were added to the vials (one solvent to each vial) in a step-wise fashion, with 0.5 mL of solvent added at each step. Solvents used were buffer (pH=2), buffer (pH=5), water, methanol, tetrahydrofuran (THF), acetonitrile, and acetone. After each addition, the vial was capped and shaken. The dissolution of solid was visually observed. If no obvious dissolution was observed, more solvent was added immediately. If dissolution was apparent, the vial was left on the bench for at least 30 minutes before the next addition of solvent. This step was repeated until no crystals were visible against a black and a white background. The solubility was then bracketed by dividing the weight of the compound by the final volume and the volume before the last addition. If a solid remained after the addition of 10 mL of solvent, the solubility was expressed as less than the weight divided by the final volume. If the solid was completely dissolved after the first addition of solvent, the solubility was expressed as greater than the weight divided by the solvent volume. All experiments were conducted at room temperature.

The next data set deals with ERK1/2. In words: ERK1/2 phosphorylation in canine mast cell tumor biopsies before and after a single dose (Western blot). In kind it is in vivo. To be noted: single oral dose 3.25 mg/kg. As for the experimental part: as §1
Analysis of KIT and ERK Phosphorylation. […] The amount of phosphorylated KIT in each sample was determined by Western blot using an antibody to phosphotyrosine 719 of murine KIT (3391; Cell Signaling Technology, Beverly, Mass.), which corresponds to tyrosine 721 of canine KIT and is an autophosphorylation site and, thus, a surrogate for KIT kinase activity. […] Target modulation was scored by eye by three observers blinded to the JM status and plasma concentration. Reduction of ≧50% in phospho-protein signal relative to total protein signal in the biopsy sample taken post-treatment compared with the pretreatment biopsy was scored as positive for target modulation, whereas a reduction of <50% was scored negative.

Values joined by “and” are separate entries in the source; they are usually repeats but may differ in a detail not shown here. Equal values may be shown once. “Also recorded” adds a separate entry of the source. Read-outs that look alike come from different tables or passages of the source.

These results are taken from patent US8987320B2, “Solid salt forms of a pyrrole substituted 2-indolinone” (Zoetis LLC, priority 2005, dated 2015).

Broadly, the solubility is the concentration that dissolves in the medium under given conditions.

Turning to `Cc1[nH]c(/C=C2\C(=O)Nc3ccc(F)cc32)c(C)c1C(=O)NCCN1CCCC1` [Compound I phosphate], in “Wettability with water”, the “wettability with water compared with Compound I free base” value was “much better”. Besides, the “evaluable MCT biopsy pairs with detectable inhibition of KIT activation” value with KIT (Eight of 11, single oral dose) amounted to 73%. Moreover, the “P-KIT reduction postdose (Phospho-Tyr721 KIT)” value with KIT (individual dogs, single oral dose 3.25 mg/kg, biopsy 8 h after treatment vs pretreatment) is listed as “Yes (Reduction of ≧50% in phospho-protein signal relative to total protein signal in the biopsy sample taken post-treatment compared with the pretreatment biopsy was scored as positive for target modulation); also recorded: No (a reduction of <50% was scored negative)”. The “evaluable dogs scored positive for KIT target modulation (≧50% reduction in phosphorylated KIT relative to total KIT)” value in the data set on KIT (single oral dose 3.25 mg/kg) is recorded as “Eight”. Besides, the “% water at 80% RH” value in data set [1] (80% RH) is on record as ~1%. Further, the “water at 80 percent humidity” value in data set [1] (80 percent relative humidity) is given as “about 1%”. For the same molecule, the concentration at 8 h in data set [2] (3.25 mg/kg, single dose at 3.25 mg/kg, 8 h, read-out: average plasma concentration for dogs that did not score for KIT target modulation) amounted to 137 ± 36 ng/mL; in data set [2] (3.25 mg/kg, single dose at 3.25 mg/kg, 8 h, read-out: average plasma concentration for dogs with evidence of KIT target modulation) it was 79.2 ± 41 ng/mL. For the same molecule, the Cmax at 8 h is 105 ± 9 ng/mL in data set [2] (3.25 mg/kg, single dose at 3.25 mg/kg, read-out: plasma concentration at 8 h (approximately Cmax), average) and 33.2 to 186 ng/mL in data set [2] (3.25 mg/kg, single dose at 3.25 mg/kg, read-out: plasma concentration at 8 h (approximately Cmax), range over dogs). Also, the “Plasma Compound I phosphate postdose” value in data set [2] (individual dogs, single oral dose 3.25 mg/kg, 8 h after dosing, 3.25 mg/kg) is 0.3 ng/mL and 83.5 ng/mL and 98.0 ng/mL and 116.0 ng/mL and 121.0 ng/mL and 186.0 ng/mL and 103.0 ng/mL and 111.0 ng/mL and 158.0 ng/mL and 65.3 ng/mL and 95.4 ng/mL and 119.0 ng/mL and 81.0 ng/mL and 33.2 ng/mL. Also, in data set [2] (single dose at 3.25 mg/kg, 8 h), the “dogs with plasma levels considered to be in the therapeutic range” value is reported as “Twelve”. Moreover, the Estimated solubility is <<<0.2 mg/mL in data set [3] (Acetone, 23° C.); <<<0.13 mg/mL in data set [3] (Acetonitrile, 23° C.); <<<0.19 mg/mL in data set [3] (THF, 23° C.); ~0.14 mg/mL in data set [3] (methanol, 23° C.). Also, the solubility was > 3000 µg/mL in data set [3] (buffer (pH 2), pH 2, at pH 2 or lower, read-out: solubility); 5900 to 7400 µg/mL in data set [3] (buffer (pH 2, HCl and KCl), 23 °C, pH 2, aqueous buffer, thermodynamic from solid, buffer (pH = 2, HCl and KCl), 23° C., read-out: Estimated solubility); ~290 µg/mL in data set [3] (water, 23 °C, pH 4.91, water, thermodynamic from solid, water, 23° C., final solution pH 4.91, read-out: Estimated solubility). Further, in the data set with ERK1/2 (individual dogs, biopsy 8 h after treatment vs pretreatment), the “P-ERK½ reduction postdose (Phospho-Thr202/Tyr204 ERK½)” value is reported as “Yes (Reduction of ≧50% in phospho-protein signal relative to total protein signal in the biopsy sample taken post-treatment compared with the pretreatment biopsy was scored as positive for target modulation); also recorded: No (a reduction of <50% was scored negative)”. The “evaluable tumors showing a reduction in the ratio of phospho-ERK1/2 to total ERK1/2” value with ERK1/2 is recorded as 7 of 11 evaluable.
